Assay results published in patent publication US20250179061A1 (SIRONAX LTD., priority 2022, published 2025).

System: HT-29 cells
Experiment: HT-29 necroptosis cell viability assay (TNF-α/SMAC mimetic/zVAD-FMK, CellTiter-Glo)
Type: cell-based
Conditions: Homo sapiens, HT-29, HT-29 necroptosis cell viability assay; class symbols for IC50; read-out: Activity
Procedure, shortened: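 HT-29 cells (~5,000/well, overnight) in FBS-free McCoy's 5A with TNF-α 10 ng/ml, SMAC mimetic 6 μM and zVAD-FMK 10 μM plus 10-point 1:3 compound titration, 20 h at 37°C. ATP measured by CellTiter-Glo luminescence; IC50 as geometric mean of duplicates.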

SMILES | IC50 [nM]
Cc1nc(C#N)sc1Oc1ccc(-n2ncn(Cc3ccccc3C#N)c2=O)cc1F [Example 570, 5-(4-(4-(2-cyanobenzyl)-5-oxo-4,5-dihydro-1H-1,2,4-triazol-1-yl)-2-fluorophenoxy)-4-methylthiazole-2-carbonitrile] | 100 to 1000
Cc1nc(C#N)sc1Oc1ccc(-n2ncn(Cc3c(F)cccc3C#N)c2=O)cc1F [Example 571, 5-(4-(4-(2-cyano-6-fluorobenzyl)-5-oxo-4,5-dihydro-1H-1,2,4-triazol-1-yl)-2-fluorophenoxy)-4-methylthiazole-2-carbonitrile] | < 100
Cc1nc(C#N)sc1Oc1ccc(-n2ncn(Cc3cc(F)ccc3F)c2=O)cc1F [Example 572, 5-(4-(4-(2,5-difluorobenzyl)-5-oxo-4,5-dihydro-1H-1,2,4-triazol-1-yl)-2-fluorophenoxy)-4-methylthiazole-2-carbonitrile] | < 100
Cc1nc(Br)sc1Oc1ccc(-n2ncn(Cc3cc(Cl)ccn3)c2=O)cc1F [Example 573, 2-(4-((2-bromo-4-methylthiazol-5-yl)oxy)-3-fluorophenyl)-4-((4-chloropyridin-2-yl)methyl)-2,4-dihydro-3H-1,2,4-triazol-3-one] | 100 to 1000
Cc1nc(C#N)sc1Oc1ccc(-n2ncn(Cc3cc(Cl)ccn3)c2=O)cc1F [Example 574, 5-(4-(4-((4-chloropyridin-2-yl)methyl)-5-oxo-4,5-dihydro-1H-1,2,4-triazol-1-yl)-2-fluorophenoxy)-4-methylthiazole-2-carbonitrile] | 100 to 1000
COC(=O)c1nc(C)c(Oc2ccc(-n3ncn(Cc4cc(Cl)ccn4)c3=O)cc2F)s1 [Example 575, methyl 5-(4-(4-((4-chloropyridin-2-yl)methyl)-5-oxo-4,5-dihydro-1H-1,2,4-triazol-1-yl)-2-fluorophenoxy)-4-methylthiazole-2-carboxylate] | 1000 to 10000
Cc1nc(C#N)sc1Oc1ccc(-n2ncn(Cc3ncccc3Cl)c2=O)cc1F [Example 576, 5-(4-(4-((3-chloropyridin-2-yl)methyl)-5-oxo-4,5-dihydro-1H-1,2,4-triazol-1-yl)-2-fluorophenoxy)-4-methylthiazole-2-carbonitrile] | < 100
CCC(O)(CC)c1nc(C)c(Oc2ccc(-n3ncn(Cc4c(F)cccc4F)c3=O)cc2)s1 [Example 577, 4-(2,6-difluorobenzyl)-2-(4-((2-(3-hydroxypentan-3-yl)-4-methylthiazol-5-yl)oxy)phenyl)-2,4-dihydro-3H-1,2,4-triazol-3-one] | < 100
Cc1csc(Cn2cnn(-c3ccc(Oc4sc(C(C)(C)O)nc4C)c(F)c3)c2=O)n1 [Example 578, 2-(3-fluoro-4-((2-(2-hydroxypropan-2-yl)-4-methylthiazol-5-yl)oxy)phenyl)-4-((4-methylthiazol-2-yl)methyl)-2,4-dihydro-3H-1,2,4-triazole-3-one] | 100 to 1000
Cc1nc(C(C)(C)O)sc1Oc1ccc(-n2ncn(Cc3c(F)cccc3C#N)c2=O)cc1F [Example 579, 3-fluoro-2-((1-(3-fluoro-4-((2-(2-hydroxypropan-2-yl)-4-methylthiazol-5-yl)oxy)phenyl)-5-oxo-1,5-dihydro-4H-1,2,4-triazol-4-yl)methyl)benzonitrile] | < 100
Cc1nc(C2(O)CC2)sc1Oc1ccc(-n2ncn(Cc3c(F)cccc3F)c2=O)cc1 [Example 580, 4-(2,6-difluorobenzyl)-2-(4-((2-(1-hydroxycyclopropyl)-4-methylthiazol-5-yl)oxy)phenyl)-2,4-dihydro-3H-1,2,4-triazol-3-one] | < 100
CCC(O)(CC)c1nc(C)c(Oc2ccc(-n3ncn(Cc4c(F)cccc4F)c3=O)cc2F)s1 [Example 581, 4-(2,6-difluorobenzyl)-2-(3-fluoro-4-((2-(3-hydroxypentan-3-yl)-4-methylthiazol-5-yl)oxy)phenyl)-2,4-dihydro-3H-1,2,4-triazol-3-one] | < 100
Cc1nc(C2(O)CC2)sc1Oc1ccc(-n2ncn(Cc3c(F)cccc3F)c2=O)cc1F [Example 582, 4-(2,6-difluorobenzyl)-2-(3-fluoro-4-((2-(1-hydroxycyclopropyl)-4-methylthiazol-5-yl)oxy)phenyl)-2,4-dihydro-3H-1,2,4-triazol-3-one] | < 100
Cc1nc(C(C)(C)O)sc1Oc1ccc(-n2ncn(Cc3c(F)cccc3F)c2=O)cc1Cl [Example 583, 2-(3-chloro-4-((2-(2-hydroxypropan-2-yl)-4-methylthiazol-5-yl)oxy)phenyl)-4-(2,6-difluorobenzyl)-2,4-dihydro-3H-1,2,4-triazol-3-one] | < 100
Cc1nc(C(C)(C)O)sc1Oc1ccc(-n2ncn(Cc3ccccc3C#N)c2=O)cc1F [Example 584, 2-((1-(3-fluoro-4-((2-(2-hydroxypropan-2-yl)-4-methylthiazol-5-yl)oxy)phenyl)-5-oxo-1,5-dihydro-4H-1,2,4-triazol-4-yl)methyl)benzonitrile] | 100 to 1000
Cc1nc(C2(O)COC2)sc1Oc1ccc(-n2ncn(Cc3c(F)cccc3F)c2=O)cc1F [Example 585, 4-(2,6-difluorobenzyl)-2-(3-fluoro-4-((2-(3-hydroxyoxetan-3-yl)-4-methylthiazol-5-yl)oxy)phenyl)-2,4-dihydro-3H-1,2,4-triazol-3-one] | < 100
Cc1nc(C2(O)CCC2)sc1Oc1ccc(-n2ncn(Cc3c(F)cccc3F)c2=O)cc1F [Example 586, 4-(2,6-difluorobenzyl)-2-(3-fluoro-4-((2-(1-hydroxycyclobutyl)-4-methylthiazol-5-yl)oxy)phenyl)-2,4-dihydro-3H-1,2,4-triazol-3-one] | < 100
Cc1nc(C(=O)N2C[C@H](N)[C@@H]2C)sc1Oc1ccc(-n2ncn(Cc3ccccc3F)c2=O)cc1F [Example 587, 2-(4-((2-((2S,3S)-3-amino-2-methylazetidine-1-carbonyl)-4-methylthiazol-5-yl)oxy)-3-fluorophenyl)-4-(2-fluorobenzyl)-2,4-dihydro-3H-1,2,4-triazol-3-one] | < 100
Cc1nc(C(=O)N2C[C@H](O)[C@@H]2C)sc1Oc1ccc(-n2ncn(Cc3c(F)cccc3F)c2=O)cc1F [Example 588, 4-(2,6-difluorobenzyl)-2-(3-fluoro-4-((2-((2S,3S)-3-hydroxy-2-methylazetidine-1-carbonyl)-4-methylthiazol-yl)oxy)phenyl)-2,4-dihydro-3H-1,2,4-triazol-3-one] | < 100
CNC(=O)c1nc(C)c(Oc2ccc(-n3ncn(Cc4ncccc4Cl)c3=O)cc2F)s1 [Example 589, 5-(4-(4-((3-chloropyridin-2-yl)methyl)-5-oxo-4,5-dihydro-1H-1,2,4-triazol-1-yl)-2-fluorophenoxy)-N,4-dimethylthiazole-2-carboxamide] | < 100
Cc1nc(C(N)=O)sc1Oc1ccc(-n2ncn(Cc3ncccc3Cl)c2=O)cc1F [Example 590, 5-(4-(4-((3-chloropyridin-2-yl)methyl)-5-oxo-4,5-dihydro-1H-1,2,4-triazol-1-yl)-2-fluorophenoxy)-4-methylthiazole-2-carboxamide] | < 100
Cc1nc(C(=O)N2CC(C)(N)C2)sc1Oc1ccc(-n2ncn(Cc3ccccc3F)c2=O)cc1F [Example 591, 2-(4-((2-(3-amino-3-methylazetidine-1-carbonyl)-4-methylthiazol-5-yl)oxy)-3-fluorophenyl)-4-(2-fluorobenzyl)-2,4-dihydro-3H-1,2,4-triazol-3-one] | < 100
Cc1nc(C(=O)N2CC(C#N)C2)sc1Oc1ccc(-n2ncn(Cc3ccccc3F)c2=O)cc1F [Example 592, 1-(5-(2-fluoro-4-(4-(2-fluorobenzyl)-5-oxo-4,5-dihydro-1H-1,2,4-triazol-1-yl)phenoxy)-4-methylthiazole-2-carbonyl)azetidine-3-carbonitrile] | < 100
Cc1nc(C(=O)N2CC(O)C2)sc1Oc1ccc(-n2ncn(Cc3ccccc3F)c2=O)cc1F [Example 593, 2-(3-fluoro-4-((2-(3-hydroxyazetidine-1-carbonyl)-4-methylthiazol-5-yl)oxy)phenyl)-4-(2-fluorobenzyl)-2,4-dihydro-3H-1,2,4-triazol-3-one] | < 100
Cc1nc(C(=O)NO)sc1Oc1ccc(-n2ncn(Cc3ccccc3F)c2=O)cc1F [Example 594, 5-(2-fluoro-4-(4-(2-fluorobenzyl)-5-oxo-4,5-dihydro-1H-1,2,4-triazol-1-yl)phenoxy)-N-hydroxy-4-methylthiazole-2-carboxamide] | 100 to 1000
CNC(=O)c1nc(C)c(Oc2ccc(-n3ncn(Cc4ccccc4F)c3=O)cc2F)s1 [Example 595, 5-(2-fluoro-4-(4-(2-fluorobenzyl)-5-oxo-4,5-dihydro-1H-1,2,4-triazol-1-yl)phenoxy)-N,4-dimethylthiazole-2-carboxamide] | < 100
Cc1nc(C(=O)NN)sc1Oc1ccc(-n2ncn(Cc3ccccc3F)c2=O)cc1F [Example 596, 5-(2-fluoro-4-(4-(2-fluorobenzyl)-5-oxo-4,5-dihydro-1H-1,2,4-triazol-1-yl)phenoxy)-4-methylthiazole-2-carbohydrazide] | < 100
Cc1nc(C(=O)N2CC(C)(O)C2)sc1Oc1ccc(-n2ncn(Cc3c(F)cccc3F)c2=O)cc1F [Example 597, 4-(2,6-difluorobenzyl)-2-(3-fluoro-4-((2-(3-hydroxy-3-methylazetidine-1-carbonyl)-4-methylthiazol-5-yl)oxy)phenyl)-2,4-dihydro-3H-1,2,4-triazol-3-one] | < 100
Cc1nc(C(=O)N2CC(NC(=O)OC(C)(C)C)C2)sc1Oc1ccc(-n2ncn(Cc3ccccc3F)c2=O)cc1F [Example 598, tert-butyl (1-(5-(2-fluoro-4-(4-(2-fluorobenzyl)-5-oxo-4,5-dihydro-1H-1,2,4-triazol-1-yl)phenoxy)-4-methylthiazole-2-carbonyl)azetidin-3-yl)carbamate] | < 100
CNC(=O)c1nc(C)c(Oc2ccc(-n3ncn(Cc4cnccc4Cl)c3=O)cc2F)s1 [Example 599, 5-(4-(4-((4-chloropyridin-3-yl)methyl)-5-oxo-4,5-dihydro-1H-1,2,4-triazol-1-yl)-2-fluorophenoxy)-N,4-dimethylthiazole-2-carboxamide] | < 100
